# Source: ChEMBL document CHEMBL1799950, “Antituberculosis cycloartane triterpenoids from Radermachera boniana” (J Nat Prod, 2011)
# System: Vero
# Assay: Cytotoxicity against african green monkey Vero cells after 72 hrs by MTS assay
# Type: cell-based
# Conditions: Chlorocebus sabaeus
row,SMILES,IC50 [µM]
1,CC(=O)O[C@H]1CC[C@]23C[C@]24CC[C@]2(C)[C@@H]([C@H](C)CCC(=O)C(C)C)CC[C@@]2(C)[C@@H]4CC[C@H]3[C@]1(C)C(=O)O [BONIANIC ACID B],74.2

# System: Vero
# Assay: Cytotoxicity against african green monkey Vero cells at 200 uM after 72 hrs by MTS assay
# Type: cell-based
# Conditions: chlorocebus sabaeus
row,SMILES,Activity
1,CC(C)[C@@H](C)/C=C/[C@@H](C)[C@H]1CC[C@@H]2[C@]1(C)CC[C@H]1[C@]23C=C[C@]2(C[C@@H](O)CC[C@]12C)OO3 [ERGOSTEROL PEROXIDE],Non-toxic

# System: Mycobacterium tuberculosis
# Assay: Antitubercular activity against Mycobacterium tuberculosis H37Rv ATCC 27294 after 7 days by microplate alamar blue assay
# Type: functional
# Conditions: H37Rv ATCC 27294, 168 h
row,SMILES,MIC [µM]
1,CC(=O)O[C@H]1CC[C@]2(C)[C@H]3CC=C4[C@H]5[C@](C(=O)O)(CC[C@@H](C)[C@@]5(C)O)CC[C@@]4(C)[C@]3(C)C[C@@H](O)[C@H]2C1(C)C,75.5
2,CC(=O)O[C@@H]1CC[C@@]2(C)[C@@H](CC[C@]3(C)[C@@H]2CC=C2[C@@H]4CC(C)(C)CC[C@]4(C)CC[C@]23C)[C@@]1(C)C(=O)O,94.8
3,CC1(C)CC[C@]2(C(=O)O)CC[C@]3(C)C(=CC[C@@H]4[C@@]5(C)CC[C@@H](O)C(C)(C)[C@@H]5CC[C@]43C)[C@@H]2C1,> 200
4,CC[C@H](CC[C@@H](C)[C@H]1CC[C@H]2[C@@H]3CC=C4CC(=O)CC[C@]4(C)[C@H]3CC[C@]12C)C(C)C [BETA-SITOSTENONE],39.5
5,CC(=O)O[C@H]1CC[C@]23C[C@]24CC[C@]2(C)[C@@H]([C@H](C)CCC=C(C)C)CC[C@@]2(C)[C@@H]4CC[C@H]3[C@]1(C)C(=O)O [BONIANIC ACID A],34.8
6,CC(=O)O[C@H]1CC[C@]23C[C@]24CC[C@]2(C)[C@@H]([C@H](C)CCC(=O)C(C)C)CC[C@@]2(C)[C@@H]4CC[C@H]3[C@]1(C)C(=O)O [BONIANIC ACID B],9.9
7,CC(C)[C@@H](C)/C=C/[C@@H](C)[C@H]1CC[C@@H]2[C@]1(C)CC[C@H]1[C@]23C=C[C@]2(C[C@@H](O)CC[C@]12C)OO3 [ERGOSTEROL PEROXIDE],3.5
8,CC1(C)CC[C@]2(C(=O)O)CC[C@]3(C)C(=CC[C@@H]4[C@@]5(C)CC[C@H](O)C(C)(C)[C@@H]5CC[C@]43C)[C@@H]2C1 [OLEANOLIC_ACID],96.5
9,CO[C@H]1/C=C/O[C@@]2(C)Oc3c(C)c(O)c4c(O)c(c(/C=N/N5CCN(C)CC5)c(O)c4c3C2=O)NC(=O)/C(C)=C\C=C\[C@H](C)[C@H](O)[C@@H](C)[C@@H](O)[C@@H](C)[C@H](OC(C)=O)[C@@H]1C [RIFAMPIN],0.14
10,C[C@H]1[C@H](C)CC[C@]2(C(=O)O)CC[C@]3(C)C(=CC[C@@H]4[C@@]5(C)CC[C@H](O)C(C)(C)[C@@H]5CC[C@]43C)[C@H]12 [URSOLIC ACID],94.8
